Laboratory results published in paper doi:10.1101/525105v1 (biorxiv, 2019).

Legend:
AMV RNase H = assay: RNase H assay; format: biochemical, Avian myeloblastosis virus; conditions: conditions not printed for this enzyme
in vitro [1] = conditions: human, lc5-ric cells
E. coli RNase H = target: T1, E. coli RNase H (Escherichia coli, UniProt P0A7Y4); assay: RNase H assay; format: biochemical
T1 sequence (P0A7Y4 1-155): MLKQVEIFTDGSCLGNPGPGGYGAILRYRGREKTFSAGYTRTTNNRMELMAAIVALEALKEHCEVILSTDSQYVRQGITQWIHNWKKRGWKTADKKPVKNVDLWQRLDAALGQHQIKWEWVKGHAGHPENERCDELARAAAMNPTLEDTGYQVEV

in vitro [2] = conditions: human, tzm-bl cells
[3] = target: HIV-1 RT (Roche colorimetric reverse transcriptase assay kit) (HIV-1 M:B_HXB2R, UniProt P04585); assay: colorimetric RT polymerase assay; format: biochemical
HIV-1IIIB = assay: microbe, parasite or virus in culture; design: species or system LC5-RIC; conditions: Human immunodeficiency virus 1, 48 h, read-out: IC50 HIV-1IIIB
[4] = target: HIV-1 integrase (XpressBio kit) (HIV-1 M:B_HXB2R, UniProt P04585); assay: HIV-1 integrase assay kit; format: biochemical

| SMILES | IC50 (AMV RNase H) | CC50 at 48 h (in vitro [1]) | IC50 (E. coli RNase H) | CC50 (in vitro [2]) | IC50 [3] | IC50 (HIV-1IIIB) | IC50 [4] |
| --- | --- | --- | --- | --- | --- | --- | --- |
| CC(C)Oc1ccc2cccnc2c1-c1cccc2ccccc12 [B#24, 7-(Isopropyloxy)-8-(naphth-1-yl)quinoline] | > 100 µM | 86.5 ± 3.7 µM | 44.3 ± 6.4 µM | 68.5 ± 17.1 µM | > 100 µM | 7.6 ± 0.2 µM | > 100 µM |
| CC(C)Oc1ccc2cccnc2c1-c1cccc2cccnc12 [B#57, 7-(Isopropyloxy)-8,8′-biquinolyl] | > 100 µM | > 200 µM | > 100 µM | > 200 µM | > 100 µM | > 200 µM | > 100 µM |
| CCN(CC)C(=O)Oc1ccc2cccnc2c1-c1cccc2cccnc12 [B#58, 7-[(Diethylamino)carbonyloxy]-8,8'-biquinolyl] |  |  |  | > 200 µM |  | > 200 µM |  |
| CC(C)Oc1ccc2ccccc2c1-c1cccc2cccnc12 [B#59, 2-(Isopropyloxy)-1-(quinol-8-yl)naphthalene] |  | 144 ± 7.7 µM |  | > 100 µM |  | 39.5 ± 1.7 µM |  |
| CCN(CC)OC(=O)c1ccc2ccccc2c1-c1cccc2cccnc12 [B#60, 2-[(Diethylamino)oxycarbonyl]-1-(quinol-8-yl)naphthalene] |  | 71.4 ± 2.8 µM |  | 69.3 ± 4.9 µM |  | 50.1 ± 3.7 µM |  |
| Cc1cc(/C=C/C#N)cc(C)c1Nc1ccnc(Nc2ccc(C#N)cc2)n1 [rilpivirine, reference compound] | > 10 µM |  | > 10 µM |  | ~0.001 µM |  |  |
